# From patent US6124136A, “Method of monitoring compliance with methadone treatment program” (U. D. Testing, Inc., priority 1993, dated 2000)
# Where “and” joins values, the source holds several entries; their conditions need not be identical. Identical values can stand only once.
# Legend:
# [1] = Plasma methadone concentration, p, calculated from spot urine (urine methadone, pH and specific gravity); settings: patient one, Tables 3 and 4, barbiturate-containing compounds discontinued
# [2] = tested on: mu-receptor subfamily of opioid cell membrane binding/transduction sites; settings: cited from earlier work
# [3] = Urinary parameter-normalized urine methadone concentration, nu
# [4] = Plasma methadone concentration versus daily oral methadone dose (FIG. 6, 8300 urine samples from 150 patients); settings: human, 70 mg/day
# [5] = Clinical course of migraine/headache in chronic pain patients (Cases #1 and #2); format: in vivo, human
# [6] = Renal clearance / renal excretion of methadone from timed urine collections; settings: as a function of urine volume production rate; 12 control subjects
structure (smiles),measurement,setting,value
CCC(=O)C(CC(C)N(C)C)(c1ccccc1)c1ccccc1 (centres unmarked) [methadone],plasma methadone levels over time,[1],increased in this patient over time
same,action at mu-receptor,[2],"potent, and nearly pure (no interfering metabolites), agonist"
same,"urinary parameter-normalized urine methadone concentration, nu","[3]; Table 1, compliant patient, dose 60",7448 and 9473
same,"urinary parameter-normalized urine methadone concentration, nu, mean","[3]; Table 1, mean of 12 tests, dose 60-70",7427
same,"urinary parameter-normalized urine methadone concentration, nu, mean","[3]; Table 2, patient two, mean of 12 tests, dose 45",17936
same,"urinary parameter-normalized urine methadone concentration, nu","[3]; Table 3, patient one (prior barbiturate use), 1991, dose 50",2924
same,"urinary parameter-normalized urine methadone concentration, nu","[3]; Table 3, patient one (prior barbiturate use), 1991, dose 65",1367 and 911
same,"urinary parameter-normalized urine methadone concentration, nu","[3]; Table 3, patient one (prior barbiturate use), 1991, dose 80",1070
same,"urinary parameter-normalized urine methadone concentration, nu, mean","[3]; Table 3, patient one, mean of 12 tests, dose 40-100",1591
same,"urinary parameter-normalized urine methadone concentration, nu","[3]; Table 4, patient one, barbiturates discontinued, 1992, dose 110",6580 and 6703 and 10880 and 6025
same,"urinary parameter-normalized urine methadone concentration, nu","[3]; Table 4, patient one, barbiturates discontinued, 1992, dose 120",8970 and 6778 and 8074 and 11966 and 6031
same,"urinary parameter-normalized urine methadone concentration, nu","[3]; Table 4, patient one, barbiturates discontinued, 1992, dose 130",7728 and 5944 and 5117
same,"urinary parameter-normalized urine methadone concentration, nu, mean","[3]; Table 4, patient one, mean of 12 tests, dose 110-130",7566
same,"urinary parameter-normalized urine methadone concentration, nu, mean","[3]; Table 6, Case #4, mean, dose 120-140",6874
same,Pred (flag: nu outside acceptable statistical range),"[3]; Table 6, Case #4, dose 140",High
same,"urinary parameter-normalized urine methadone concentration, nu, mean","[3]; Table 7, Case #5, mean of 13 tests, dose 130",14502
same,Pred (flag: nu outside acceptable statistical range),"[3]; Table 7, Case #5, dose 130",LOW and HIGH
same,concentration at 24 h,[4],200 ng/mL
same,stress-related headaches,"[5]; patient one, 130 mg per day",slowly decreasing in severity and frequency
same,migraines,"[5]; patient one, stabilized on 130 mg per day, plasma level above 135 ng/ml",ceased completely
same,migraine frequency and severity,"[5]; patient two, gradual titration to 35 mg of methadone",slowly decayed in frequency and severity
same,renal excretion rate during a typical day,[6],relatively constant
Oc1ccc2c3c1O[C@H]1[C@@H](O)CC[C@@]4(O)[C@@H](C2)N(CC2CCC2)CC[C@]314 [nalbuphine],control of pain,"[5]; patient one, self-administered IM, before methadone",failure
